Measurements as given in US11866450B2, “Modulators of Cystic Fibrosis Transmembrane Conductance regulator, pharmaceutical compositions, methods of treatment, and process for making the modulators” (priority 2018, dated 2024).
Where two headings read alike, the source gives them in different places.

Legend:
[1] = molecular target: CFTR-mediated chloride transport (Homo sapiens, UniProt P13569); assay type: cell-based; details: enteroid cells incubated with test compound 18-24 hours, acute 10 μM forskolin and 300 nM Compound III; for Max. Activity: % of chloride transport with 3 μM Compound A, 3 μM Compound II and 300 nM acute Compound III triple combination control
In short: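 Human intestinal enteroid cells incubated with compound 18–24 h at 37° C., then membrane potential dye (FLIPR) read 15 min after chloride-free stimulation with 10 μM forskolin, 100 μM IBMX and 300 nM Compound III. AUC expressed as % of triple-combination control (3 μM Compound A, 3 μM Compound II, 300 nM Compound III).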

[2] = snar bond

Sequence of CFTR-mediated chloride transport (P13569 whole entry, looked up): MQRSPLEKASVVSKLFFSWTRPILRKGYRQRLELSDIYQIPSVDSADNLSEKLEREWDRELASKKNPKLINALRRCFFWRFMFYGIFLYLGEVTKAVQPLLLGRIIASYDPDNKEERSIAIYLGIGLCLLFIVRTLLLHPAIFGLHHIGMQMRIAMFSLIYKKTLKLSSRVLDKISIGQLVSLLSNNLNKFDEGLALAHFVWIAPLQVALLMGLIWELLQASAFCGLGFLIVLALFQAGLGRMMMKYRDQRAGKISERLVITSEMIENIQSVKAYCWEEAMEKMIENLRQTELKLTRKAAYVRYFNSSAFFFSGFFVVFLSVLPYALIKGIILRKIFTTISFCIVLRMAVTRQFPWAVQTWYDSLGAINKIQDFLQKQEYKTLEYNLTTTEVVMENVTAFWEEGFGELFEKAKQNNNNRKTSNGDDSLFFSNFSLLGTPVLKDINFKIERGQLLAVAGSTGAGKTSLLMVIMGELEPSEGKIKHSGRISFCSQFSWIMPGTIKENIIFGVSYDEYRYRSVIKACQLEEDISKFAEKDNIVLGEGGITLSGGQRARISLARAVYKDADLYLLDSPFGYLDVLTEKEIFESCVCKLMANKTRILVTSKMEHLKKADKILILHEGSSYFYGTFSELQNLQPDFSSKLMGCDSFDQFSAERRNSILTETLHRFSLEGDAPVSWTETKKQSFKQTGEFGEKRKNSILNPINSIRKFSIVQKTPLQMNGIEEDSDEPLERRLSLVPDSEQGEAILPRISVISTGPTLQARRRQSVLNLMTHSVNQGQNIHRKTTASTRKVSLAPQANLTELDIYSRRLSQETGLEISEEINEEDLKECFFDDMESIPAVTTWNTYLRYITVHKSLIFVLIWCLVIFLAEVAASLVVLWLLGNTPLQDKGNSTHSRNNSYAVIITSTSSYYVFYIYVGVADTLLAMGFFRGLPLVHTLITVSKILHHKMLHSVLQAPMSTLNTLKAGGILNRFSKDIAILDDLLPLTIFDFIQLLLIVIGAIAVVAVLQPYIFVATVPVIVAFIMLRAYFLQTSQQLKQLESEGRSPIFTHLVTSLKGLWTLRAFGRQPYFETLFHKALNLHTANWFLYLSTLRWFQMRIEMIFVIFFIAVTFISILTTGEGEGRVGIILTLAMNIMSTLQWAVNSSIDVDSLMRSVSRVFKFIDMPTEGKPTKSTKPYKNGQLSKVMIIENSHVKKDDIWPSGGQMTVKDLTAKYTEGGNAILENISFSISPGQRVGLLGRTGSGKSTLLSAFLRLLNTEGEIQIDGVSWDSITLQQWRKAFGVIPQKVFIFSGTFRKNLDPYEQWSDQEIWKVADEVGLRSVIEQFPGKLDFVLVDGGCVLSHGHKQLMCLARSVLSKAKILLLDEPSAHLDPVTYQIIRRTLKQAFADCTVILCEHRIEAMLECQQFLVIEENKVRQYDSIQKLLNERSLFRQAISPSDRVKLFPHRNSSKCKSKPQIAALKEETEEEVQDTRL

Compound	EC50 [1] [µM]	Max. Activity [1]	also measured
CC1(C)CC2CCCCCc3ccc(nc3)S(=O)(=O)NC(=O)c3ccc(-n4ccc(OCCC5(C(F)(F)F)CC5)n4)nc3N1C2 (stereo not drawn) [Compound 143, 12,12-dimethyl-8-(3-{2-[1-(trifluoromethyl)cyclopropyl]ethoxy}-1H-pyrazol-1-yl)-2λ^6-thia-3,9,11,22-tetraazatetracyclo[18.2.2.111,14.05,10]pentacosa-1(23),5,7,9,20(24),21-hexaene-2,2,4-trione]	1 to 3	+ (+ is <30%)	ring closure, isolated yield ([2]; from CC1(C)CC(CCCCCc2ccc(S(=O)(=O)NC(=O)c3ccc(-n4ccc(OCCC5(C(F)(F)F)CC5)n4)nc3Cl)nc2)CN1, 17-membered ring, K2CO3/CsF, DMSO, 45.1 mM, 165.0 °C, 17.0 h): 11%
[2H]C([2H])(CCOc1ccn(-c2ccc3c(n2)N2C[C@@H](CCCNc4cccc(n4)S(=O)(=O)NC3=O)CC2(C)C)n1)C1(C(F)(F)F)CC1 [Compound 269, (14S)-12,12-Dimethyl-8-(3-{3-[1-(trifluoromethyl)cyclopropyl]-3,3-dideuterio-propoxy}-1H-pyrazol-1-yl)-2λ^6-thia-3,9,11,18,23-pentaazatetracyclo[17.3.1.111,14.05,10]tetracosa-1(22),5(10),6,8,19(23),20-hexaene-2,2,4-trione]	< 1	+++ (+++ is >60%)	ring closure, isolated yield ([2]; from [2H]C([2H])(CCOc1ccn(-c2ccc(C(=O)NS(=O)(=O)c3cccc(NCCC[C@@H]4CN(C(=O)OC(C)(C)C)C(C)(C)C4)n3)c(Cl)n2)n1)C1(C(F)(F)F)CC1, 15-membered ring, TFA/DCM, then K2CO3/3A MS, DMSO, 30.5 mM, 150.0 °C, 2 steps): 24%
CC1(C)C[C@@H]2CCCn3ccc(n3)S(=O)(=O)NC(=O)c3ccc(-n4ccc(OCCC5C6(CC6)C56CC6)n4)nc3N1C2 [Compound 187, (18S)-4-[3-(2-{Dispiro[2.0.2.1]heptan-7-yl}ethoxy)-1H-pyrazol-1-yl]-20,20-dimethyl-10λ^6-thia-1,3,9,14,22-pentaazatetracyclo[16.2.1.111,14.02,7]docosa-2,4,6,11(22),12-pentaene-8,10,10-trione]	< 1	+++ (+++ is >60%)	ring closure, isolated yield ([2]; from CC1(C)C[C@H](CCCn2ccc(S(=O)(=O)NC(=O)c3ccc(-n4ccc(OCCC5C6(CC6)C56CC6)n4)nc3Cl)n2)CN1, 14-membered ring, K2CO3/CsF/3A MS, DMSO, 26.2 mM, 155.0 °C, 18.0 h): 72%
CC1(C)CC2CCCNc3cccc(n3)S(=O)(=O)NC(=O)c3ccc(-n4ccc(OCCC5(C(F)(F)F)CC5)n4)nc3N1C2 (racemic) [Compound 12, 12,12-dimethyl-8-(3-{2-[1-(trifluoromethyl)cyclopropyl]ethoxy}-1H-pyrazol-1-yl)-2λ^6-thia-3,9,11,18,23-pentaazatetracyclo[17.3.1.111,14.05,10]tetracosa-1(23),5(10),6,8,19,21-hexaene-2,2,4-trione]	< 1	+++ (+++ is >60%)	ring closure, isolated yield ([2]; from 2-chloro-N-[[6-[3-(5,5-dimethylpyrrolidin-3-yl)propylamino]-2-pyridyl]sulfonyl]-6-[3-[2-[1-(trifluoromethyl)cyclopropyl]ethoxy]pyrazol-1-yl]pyridine-3-carboxamide (dihydrochloride salt), 15-membered ring, K2CO3/CsF, NMP, 144.7 mM, 150.0 °C): 67%
CC1(C)CC2CCCCOc3ccc(cn3)S(=O)(=O)NC(=O)c3ccc(-n4ccc(OCCC5(C(F)(F)F)CC5)n4)nc3N1C2 (stereo not drawn) [Compound 94, 12,12-dimethyl-8-(3-{2-[1-(trifluoromethyl)cyclopropyl]ethoxy}-1H-pyrazol-1-yl)-19-oxa-2λ^6-thia-3,9,11,21-tetraazatetracyclo[18.2.2.111,14.05,10]pentacosa-1(23),5,7,9,20(24),21-hexaene-2,2,4-trione]	> 3	+ (+ is <30%)	ring closure, isolated yield ([2]; from CC(C)(C)OC(=O)N1CC(CCCCOc2ccc(S(=O)(=O)NC(=O)c3ccc(-n4ccc(OCCC5(C(F)(F)F)CC5)n4)nc3Cl)cn2)CC1(C)C, 17-membered ring, HCl (Boc off), K2CO3/CsF/3A MS, DMSO, 59.4 mM, 150.0 °C, 2 steps): 26%
[2H]C([2H])(COc1ccn(-c2ccc3c(n2)N2C[C@@H](CCCNc4cccc(n4)S(=O)(=O)NC3=O)CC2(C)C)n1)C1C2(CC2)C12CC2 [Compound 252, (14S)-8-[3-(2-{dispiro[2.0.2.1]heptan-7-yl}-2,2-dideuterio-ethoxy)-1H-pyrazol-1-yl]-12,12-dimethyl-2λ^6-thia-3,9,11,18,23-pentaazatetracyclo[17.3.1.111,14.05,10]tetracosa-1(22),5,7,9,19(23),20-hexaene-2,2,4-trione]	< 1	+++ (+++ is >60%)	ring closure, isolated yield ([2]; from 2-chloro-6-[3-(2,2-dideuterio-2-dispiro[2.0.2.1]heptan-7-yl-ethoxy)pyrazol-1-yl]-N-[[3-[(3S)-5,5-dimethylpyrrolidin-3-yl]propylamino]-2-pyridyl]sulfonyl]pyridine-3-carboxamide (trifluoroacetate salt), 15-membered ring, K2CO3, NMP, 21.6 mM, 150.0 °C): 85%
CC1(C)C[C@@H]2CCCNc3cccc(n3)S(=O)(=O)NC(=O)c3ccc(-n4ccc(OCCC(C5CC5)C5CC5)n4)nc3N1C2 [Compound 66, (14S)-8-[3-(3,3-dicyclopropylpropoxy)-1H-pyrazol-1-yl]-12,12-dimethyl-2λ^6-thia-3,9,11,18,23-pentaazatetracyclo[17.3.1.111,14.05,10]tetracosa-1(22),5,7,9,19(23),20-hexaene-2,2,4-trione]	< 1	+++ (+++ is >60%)	ring closure, isolated yield ([2]; from CC1(C)C[C@H](CCCNc2cccc(S(=O)(=O)NC(=O)c3ccc(-n4ccc(OCCC(C5CC5)C5CC5)n4)nc3Cl)n2)CN1, 15-membered ring, K2CO3/CsF, NMP, 75.7 mM, 150.0 °C, 20.0 h): 63%
